The term pKa denotes the negative logarithm of the acid dissociation constant. One may read the Cmax as the maximum level reached in the sampled fluid or tissue.

We go through four compounds from PMC10218007, “Potential Clinically Relevant Effects of Sialylation on Human Serum AAG-Drug Interactions Assessed by Isothermal Titration Calorimetry: Insight into Pharmacoglycomics?” (International Journal of Molecular Sciences, 2023).

The conditions of series [1]: cited from earlier work; for pKa: ref (5) lidocaine and diltiazem, (6) clindamycin, (7) warfarin.
The test system of a further series is AAG + s or AAG − s. The settings on record: calculated; for Decrease of free drug concentration, AAG − s vs AAG + s, in the presence of HSA: with 0.64 mM HSA, depending on the conditions. An excerpt: AAG is an acute-phase protein with variable concentration in plasma and this consequently affects the free drug concentration. Hyperquad simulation and speciation software (HySS 4.0.31) was used to calculate the fraction of free vs. bound drug by solving the mass balance equations using the measured binding affinities. […] The plasma concentrations of the drug vary over time depending on the dosing regimen, and steady–state concentrations were used in the model.
In addition to AAG, human serum albumin (HSA) also plays a critical role in drug binding due to its high plasma concentration. Therefore, to obtain more realistic estimates, the free drug concentration was calculated taking into account the available data on the binding of the studied drugs to HSA.

Series [2] concerns the target Desialylated human AAG (AAG − s) (Homo sapiens, UniProt P02763). The series is described as follows: ITC titration of desialylated AAG (AAG − s) with drugs. It counts as binding. Conditions: 310 K. As for the experimental part: (§1) All chemicals were used without further purification. Immobilized SialEXO® (derived from Akkermansia muciniphilla and expressed in E. Coli) was obtained from Smart Enzymes™ Genovis (Lund, Sweden), and HEPES buffer was obtained from VWR International (Leuven, Belgium). All other reagents were of analytical grade or better. All solutions were prepared immediately before the experiments in order to minimize contamination and/or impair the stability of solutions. The solutions for microcalorimetric titrations were prepared in 25 mM HEPES at pH 7.40 containing 150 mM NaCl (Kemika, Zagreb, Croatia), using doubly distilled water and 5 M NaOH (Kemika, Zagreb, Croatia) for adjusting the pH value. AAG and drug solutions were prepared by dissolving the appropriate amount of solid in the given solvent.
The ITC titrations were performed on a MicroCal PEAQ–ITC calorimeter (Malvern Panalytical Ltd., Malvern, UK). The solutions were thoroughly degassed beforehand, under vacuum to avoid any formation of bubbles that might be present in the sample cell. All microcalorimetric measurements were performed at 37 °C. […]
(§2) All ITC data were analyzed with MicroCal PEAQ-ITC Analysis Software 1.30 using the One Set Sites Fitting Model. […] All p values were calculated using the t-test() function in Microsoft Excel (Microsoft Corporation, Redmond, WA, USA).
A general note: ITC needs no label: the signal is the heat of the interaction.

The conditions of series [3]: ref 46 lidocaine, 47 diltiazem, 48 clindamycin, 49 warfarin, cited from earlier work; for Cmax: usual therapeutic peak plasma level.
For series [4], the target named is Native human AAG (AAG + s) (Homo sapiens, UniProt P02763). Nature of the series: ITC titration of native AAG (AAG + s) with drugs. Conditions: 310 K. The class given is binding. As for the experimental part: as §1
The ITC titrations were performed on a MicroCal PEAQ–ITC calorimeter (Malvern Panalytical Ltd., Malvern, UK). The solutions were thoroughly degassed beforehand, under vacuum to avoid any formation of bubbles that might be present in the sample cell. All microcalorimetric measurements were performed at 37 °C. The volume of the sample cell was approximately 200 μ L and the volume of the burette (syringe) was 42 μ L. Each titration was performed in duplicate or triplicate. Blank experiments were performed to estimate corrections for the dilution heat.
AAG solution (100 – 200 μ M) was loaded into the sample cell using a calibrated syringe (1 mL Hamilton) and titrated with 1 – 2 mM drug solutions. The sample cell was continuously stirred at 700 rpm. Differential power (DP) is arbitrarily applied to each titration. The interval between successive injections was 200 s, which is long enough for the signal to return to its baseline and to ensure equilibrium after each addition. Double distilled water was present in the reference cell during all experiments. To correct for the thermal effect, control titrations were performed for drug solution in buffer under the same conditions as the AAG–drug titrations and dilution heat was subtracted from the AAG–drug titration data.
as §2

The next series has as its target AAG+s. Conditions: log Ka = log (1/KD), KD in M; ref (2) lidocaine, (3) warfarin, (4) clindamycin; cited from earlier work.

Counter-ions that a name gives are not always drawn.

Sequence of Native human AAG (AAG + s) (P02763 19-201): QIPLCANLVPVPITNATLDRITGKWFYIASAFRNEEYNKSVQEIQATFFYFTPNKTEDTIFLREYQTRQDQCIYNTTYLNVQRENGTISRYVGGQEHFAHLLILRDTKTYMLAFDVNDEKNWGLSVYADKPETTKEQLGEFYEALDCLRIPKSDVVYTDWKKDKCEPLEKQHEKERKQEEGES
Sequence of Desialylated human AAG (AAG − s) (P02763 19-201): as above

Turning to `COc1ccc([C@@H]2Sc3ccccc3N(CCN(C)C)C(=O)[C@@H]2OC(C)=O)cc1` [Diltiazem, diltiazem hydrochloride], in series [1], the pKa is 8.03. Also, the “Decrease of free plasma concentration with AAG − s vs AAG + s” value in the series on AAG + s or AAG − s (AAG only, no HSA) is reported as 20–30%. For the same compound, the “N (number of drug binding sites), AAG − s” value in series [2] was found to be 0.868 ± 0.0290. In series [3], the peak concentration (Cmax) was 0.44 µM. Further, in series [4], the “N (number of drug binding sites), AAG + s” value was determined as 0.804 ± 0.238 and the “Δr S°, AAG + s” value turned out to be 7.80 ± 1.74 J K^−1 mol^−1.
Turning to `CCN(CC)CC(=O)Nc1c(C)cccc1C` [Lidocaine, lidocaine], the “Decrease of free drug concentration, AAG − s vs AAG + s, in the presence of HSA” value in the series on AAG + s or AAG − s was 10% to 40. Moreover, in series [3] (usual therapeutic trough plasma level), the Ctrough is 6.40 µM.
For the compound `CC(=O)CC(c1ccccc1)c1c(O)c2ccccc2oc1=O` (stereo not shown) [Warfarin, Warfarin sodium salt], in series [1], the pKa was 4.99. Also, the “Decrease of free drug concentration, AAG − s vs AAG + s, in the presence of HSA” value in the series with AAG + s or AAG − s was 10% to 40. Moreover, at AAG+s, the “Reference AAG+s log KA” value is given as 5.34. Besides, the “N (number of drug binding sites), AAG − s” value in series [2] was 0.795 ± 0.0290. Besides, the Cmax in series [3] was 9.08 µM. Also, in series [4], the “N (number of drug binding sites), AAG + s” value was 0.654 ± 0.117 and the “Δr S°, AAG + s” value was −191± 5.42 J K^−1 mol^−1.
Turning to clindamycin phosphate, the “Fraction present in protonated form” value in series [1] (at the measured pH (7.40)) is “about 30%”.
